Assays:
[1] = Therapeutic effects compared with the racemates and optical antipodes; details: compared to their corresponding racemates and their optical antipodes
[2] = Tolerability in laboratory animals (acute toxicity in mice); format: in vivo; details: compared with the S(+)-isomer
Method: The experiments are carried out on conscious albino mice that are administered escalating doses of the test compounds intravenously or orally.

[3] = Cardiovascular depressing activity (cardiac side effect studies); format: in vivo, guinea pigs; details: unwanted side effect of racemic oxybutynin
Method: Male guinea pigs (450-600 g) are anesthetized with freshly prepared dialurethane sodium. The jugular vein is catheterized for iv administration of test drugs and the trachea is exposed and cannulated. Subdermal electrodes are positioned for Lead II electrocardiogram recording, monitored on a Grass Polygraph recorder, set at a paper speed of 50 mm/sec. The animals are allowed to stabilize for 30 minute after completion of surgery, and three baseline EKG recordings are then made at 10-minute intervals. The animals are then given a dose of the test compound or vehicle as an intravenous infusion over 30 min. EKG recordings are used to determine QT intervals and heart rates. To compensate for variations in heart rates, QTc intervals are calculated from QT- and RR-intervals as known to those skilled in the art. Prolongation of QTc is indicative of a prolonged action potential, caused by an inhibition of the delayed rectifier potassium channel. Prolongation of QTc is the known cause of Torsades de Pointes ventricular fibrillation by drugs such as terodiline, terfenadine and astemizole (now withdrawn from the market).

Compound	therapeutic effects [1]	tolerated when given to laboratory animals [2]	cardiovascular depressing activity [3]
CCNCC#CCOC(=O)[C@](O)(c1ccccc1)C1CCCCC1 [R(-)-isomer of desethyloxybutynin, R(-)-4-ethylamino-2-butynyl cyclohexylphenyl-glycolate]	superior therapeutic effects	–	–
CCN(CC)CC#CCOC(=O)[C@](O)(c1ccccc1)C1CCCCC1 [R(-)-isomer of oxybutynin, R(-)-4-diethylamino-2-butynyl_-cyclohexyl-_-hydroxy-benzeneacetate]	superior therapeutic effects	much better tolerated than the S(+)-isomer	–
CCNCC#CCOC(=O)[C@@](O)(c1ccccc1)C1CCCCC1 [S(+)-isomer of desethyloxybutynin]	–	–	serious cardiovascular depressing activity
CCN(CC)CC#CCOC(=O)[C@@](O)(c1ccccc1)C1CCCCC1 [S(+)-isomer of oxybutynin]	–	–	serious cardiovascular depressing activity
